The source of these data is patent US20140057284A1, “PHOTOLUMINESCENT MOLECULAR COMPLEX AND METHOD FOR DETERMINING OF THE CONCENTRATION OF SAID MOLECULAR COMPLEX” (priority 2011, published 2014).

For one assay, the target named is catalytic subunit of cAMP-dependent protein kinase (PKAc) (Homo sapiens, UniProt P17612). The experiment in a line: Binding affinity to PKAc. As to conditions: PKAc and some other PKs of the AGC group; in words.
With `N=C(N)NCCC[C@@H](NC(=O)CCCCCNC(=O)c1ccc(-c2ccnc(N)n2)s1)C(=O)NCCCCCC(=O)N[C@H](CCCNC(=N)N)C(=O)N[C@H](CCCNC(=N)N)C(=O)N[C@H](CCCNC(=N)N)C(=O)N[C@H](CCCNC(=N)N)C(=O)N[C@H](CCCNC(=N)N)C(=O)N[C@H](CCCNC(=N)N)C(=O)N[C@H](CCCCN)C(N)=O` [ARC-668], the “affinity of binding to PKAc” value is listed as “subnanomolar or low nanomolar”. For `N=C(N)NCCC[C@@H](NC(=O)CCCCCNC(=O)c1ccc(-c2ccnc(N)n2)[se]1)C(=O)NCCCCCC(=O)N[C@H](CCCNC(=N)N)C(=O)N[C@H](CCCNC(=N)N)C(=O)N[C@H](CCCNC(=N)N)C(=O)N[C@H](CCCNC(=N)N)C(=O)N[C@H](CCCNC(=N)N)C(=O)N[C@H](CCCNC(=N)N)C(=O)N[C@H](CCCCN)C(N)=O` [ARC-1138], the “affinity of binding to PKAc” value is recorded as “subnanomolar or low nanomolar”.

`N=C(N)NCCC[C@@H](NC(=O)CCCCCNC(=O)c1ccc(-c2ncnc3[nH]ccc23)s1)C(=O)NCCCCCC(=O)N[C@H](CCCNC(=N)N)C(=O)N[C@H](CCCNC(=N)N)C(=O)N[C@H](CCCNC(=N)N)C(=O)N[C@H](CCCNC(=N)N)C(=O)N[C@H](CCCNC(=N)N)C(=O)N[C@H](CCCNC(=N)N)C(=O)N[C@H](CCCCN)C(N)=O` [ARC-1135]: the “affinity of binding to PKAc” value is reported as “subnanomolar or low nanomolar”. The same measure, in the same setting: the entry for `N=C(N)NCCC[C@@H](NC(=O)[C@@H](CCCNC(=N)N)NC(=O)CCCCCNC(=O)[C@@H](CCCCN)NC(=O)CCCCCNC(=O)c1ccc(-c2ccncc2)s1)C(N)=O` [ARC-1121] is “subnanomolar or low nanomolar”; for `N=C(N)NCCC[C@@H](NC(=O)CCCCCNC(=O)c1ccc(-c2ccncn2)s1)C(=O)NCCCCCC(=O)N[C@H](CCCNC(=N)N)C(=O)N[C@H](CCCNC(=N)N)C(=O)N[C@H](CCCNC(=N)N)C(=O)N[C@H](CCCNC(=N)N)C(=O)N[C@H](CCCNC(=N)N)C(=O)N[C@H](CCCNC(=N)N)C(=O)N[C@H](CCCCN)C(N)=O` [ARC-1129] it is “subnanomolar or low nanomolar”. On to `N=C(N)NCCC[C@@H](NC(=O)CCCCCNC(=O)c1ccc(-c2ccnc(N)n2)s1)C(=O)NCCCCCC(=O)N[C@H](CCCNC(=N)N)C(=O)N[C@H](CCCNC(=N)N)C(=O)N[C@H](CCCNC(=N)N)C(=O)N[C@H](CCCNC(=N)N)C(=O)N[C@H](CCCNC(=N)N)C(=O)N[C@H](CCCNC(=N)N)C(=O)N[C@H](CCCCNc1ccc([N+](=O)[O-])c2nonc12)C(N)=O` [ARC-676], for which the “affinity of binding to PKAc” value was “subnanomolar or low nanomolar”. Same read-out and setting: the entry for `Cc1nccc(-c2ccc(C(=O)NCCCCCC(=O)N[C@H](CCCNC(=N)N)C(=O)NCCCCCC(=O)N[C@H](CCCNC(=N)N)C(=O)N[C@H](CCCNC(=N)N)C(=O)N[C@H](CCCNC(=N)N)C(=O)N[C@H](CCCNC(=N)N)C(=O)N[C@H](CCCNC(=N)N)C(=O)N[C@H](CCCNC(=N)N)C(=O)N[C@H](CCCCN)C(N)=O)s2)n1` [ARC-1123] is “subnanomolar or low nanomolar”. The same measure, in the same setting: the entry for `N=C(N)NCCC[C@@H](NC(=O)CCCCCNC(=O)c1ccc(-c2ncnc3[nH]cnc23)s1)C(=O)NCCCCCC(=O)N[C@H](CCCNC(=N)N)C(=O)N[C@H](CCCNC(=N)N)C(=O)N[C@H](CCCNC(=N)N)C(=O)N[C@H](CCCNC(=N)N)C(=O)N[C@H](CCCNC(=N)N)C(=O)N[C@H](CCCNC(=N)N)C(=O)N[C@H](CCCCN)C(N)=O` [ARC-1132] is “subnanomolar or low nanomolar”.

A further assay deals with PKAc in living C9H6 cells. In words: Monitoring of kinase activity in living cells loaded with ARC-1139. It counts as cell-based. As to conditions: H89 100 μM added after Forskolin. Here is the method:
CHO, C9H6 and HEK cells were cultured in F12 Nutrient Mixture supplemented with 10% fetal bovine serum, 2 mM L-glutamine, 100 U/ml penicillin and 100 μg/ml streptomycin at 37° C. in humidified atmosphere containing 5% CO2. In case of C9H6 cells, 300 μg/ml of Zeocine™ and 800 μg/ml of Geneticin® were additionally introduced to the nutrient mixture. Cells were seeded to 96-well plates (for plate reader experiments) and grown to 60%-80% confluency. The medium was replaced with fresh serum-free medium containing the luminescent probe ARC-1139 (10 μM) and incubated for 1 hour at 37° C. Subsequently, the cells were washed three times with PBS and analyzed on a PheraStar platereader with TRF optic modules [ex. 337(50) nm, em. 675(50) and 620(20) nm] using the time-resolved fluorescence measurement mode. Forskolin (final concentration of 25 μM) and H89 (final concentration of 100 μM) were added to the cells during the measurement (after 3 min and 7 min from the start of data acquisition, respectively)
Turning to `O=S(=O)(NCCNC/C=C/c1ccc(Br)cc1)c1cccc2cnccc12` [H89], the “luminescence from live cells loaded with ARC-1139 after Forskolin” value was “signal decreased”.

The target in another assay is PKAc (Homo sapiens, UniProt P17612). The experiment in a line: Measurement of dissociation kinetics of inhibitor-kinase complexes with ARC-1063. The assay is classed as binding. Particulars: inhibitor 5-10 nM, PKAc 10 nM, 27° C., ARC-1063 100-300 nM. Here is the method: Measurements of dissociation kinetics of non-labeled inhibitors from the inhibitor-kinase complexes (residence time) were carried out by mixing the solution of the examined inhibitor (5-10 nM) with PKAc (10 nM), and incubation of the solution for 15 min at 27° C., followed by addition of a high concentration of the luminescent probe ARC-1063 (final concentration of 100-300 nM), and measurement of the luminescence signal at 5 s time intervals (FIG. 10). The collected data were fitted to the first-order kinetic model yielding the dissociation rate constants for the examined inhibitors.
`CN[C@@H]1C[C@H]2O[C@@](C)([C@@H]1OC)n1c3ccccc3c3c4c(c5c6ccccc6n2c5c31)C(=O)NC4` [staurosporine]: the “Dissociation half-lives of PKAc complexes” value is listed as 12 s.
